Test results taken from patent US12016852B2, “Pyrrolidine glycosidase inhibitors” (Asceneuron SA, priority 2018, dated 2024).

Biological target: T1, Human O-GlcNAcase (His-Tagged hOGA) (Homo sapiens, UniProt O60502)
T1 sequence (O60502 1-916): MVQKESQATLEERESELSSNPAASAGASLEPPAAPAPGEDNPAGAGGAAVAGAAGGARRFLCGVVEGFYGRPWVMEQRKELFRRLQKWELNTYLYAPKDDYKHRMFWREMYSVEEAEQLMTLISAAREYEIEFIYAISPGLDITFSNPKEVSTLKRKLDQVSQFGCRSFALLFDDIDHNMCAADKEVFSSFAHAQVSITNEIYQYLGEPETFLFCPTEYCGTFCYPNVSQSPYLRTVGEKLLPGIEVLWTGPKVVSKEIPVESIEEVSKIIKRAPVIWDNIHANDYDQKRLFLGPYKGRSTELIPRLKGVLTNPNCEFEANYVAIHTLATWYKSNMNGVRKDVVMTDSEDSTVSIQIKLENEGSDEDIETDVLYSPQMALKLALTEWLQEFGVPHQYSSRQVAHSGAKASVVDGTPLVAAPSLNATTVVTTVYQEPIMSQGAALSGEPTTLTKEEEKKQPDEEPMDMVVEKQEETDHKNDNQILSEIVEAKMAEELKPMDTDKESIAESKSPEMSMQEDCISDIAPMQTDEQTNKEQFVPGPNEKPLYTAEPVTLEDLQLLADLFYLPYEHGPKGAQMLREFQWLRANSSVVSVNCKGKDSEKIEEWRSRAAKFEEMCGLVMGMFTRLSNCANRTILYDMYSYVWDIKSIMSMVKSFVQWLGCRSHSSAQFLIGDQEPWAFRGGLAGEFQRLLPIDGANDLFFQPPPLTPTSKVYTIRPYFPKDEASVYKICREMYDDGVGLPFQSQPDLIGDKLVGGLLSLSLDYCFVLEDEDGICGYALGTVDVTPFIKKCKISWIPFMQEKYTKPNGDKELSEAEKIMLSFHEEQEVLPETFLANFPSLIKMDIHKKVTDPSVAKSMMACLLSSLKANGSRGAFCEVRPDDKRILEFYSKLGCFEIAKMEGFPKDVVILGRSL
Test: Human O-GlcNAcase enzyme inhibition assay
Type: biochemical
Details: 20 nM His-Tagged hOGA, 10 μM FL-GlcNAc, McIlvaine's Buffer pH 6.5, 60 min at room temperature, fluorescence; read-out: OGA IC50
Procedure: Example B01: Human O-GlcNAcase Enzyme Inhibition Assay
5 μl of the appropriate concentration of a solution of inhibitor in Mcllvaine's Buffer (pH 6.5) in 2% DMSO (for a dose response curve calculation) is added into each well of a 384-well plate (Greiner, 781900). Then, 20 nM of His-Tagged hOGA and 10 μM of FL-GlcNAc (Fluorescein mono-beta-D-(2-deoxy-2-N-acetyl) glucopyranoside; Marker Gene Technologies Inc, M1485) were added to the 384-well plate for a final volume of 20 μl. After incubation for 60 min at room temperature, the reaction was terminated by the addition of 10 μL of stop buffer (200 mM glycine, pH 10.75). The level of fluorescence (λexc 485 nm; (λemm 520 nm) was read on a PHERAstar machine. The amount of fluorescence measured was plotted against the concentration of inhibitor to produce a sigmoidal dose response curve to calculate an IC50. All individual data was corrected by subtraction of the background (Thiamet 3 uM=100% inhibition) whilst 0.5% DMSO was considered as the control value (no inhibition).

`Cn1cc(-c2cccc(CN3CCCC3c3ccc4c(c3)OCCO4)c2)cn1` (racemic) [Example 21, 4-(3-((2-(2,3-dihydrobenzo[b] [1,4]dioxin-6-yl)pyrrolidin-1-yl)methyl)phenyl)-1-methyl-1H-Pyrazole] was tested, and the IC50 was 0.2 to 1 µM.

`Cn1cc(-c2ccc(CN3CCCC3c3ccc4c(c3)OCCO4)cc2)cn1` (racemic) [Example 4, 4-(4-((2-(2,3-dihydrobenzo[b] [1,4]dioxin-6-yl)pyrrolidin-1-yl)methyl)phenyl)-1-methyl-1H-pyrazole] was tested, and the IC50 was 0.05 to 0.2 µM.

For `O=C1CCCCN1c1ccc(CN2CCCC2c2ccc3c(c2)OCCO3)cc1` (racemic) [Example 62, 1-(4-((2-(2,3-dihydrobenzo[b] [1,4]dioxin-6-yl)pyrrolidin-1-yl)methyl)phenyl)piperidin-2-one], the IC50 was 0.2 to 1 µM.

Work on `c1ccc(-c2ccc(CN3CCCC3c3ccc4c(c3)OCC4)cc2)cc1` (racemic) [Example 22, 1-([1,1′-biphenyl]-4-ylmethyl)-2-(2,3-dihydrobenzofuran-6-yl)pyrrolidine] yielded an IC50 of 0.2 to 1 µM.

`c1ncc(-c2ccc(CN3CCCC3c3ccc4c(c3)OCCO4)cc2)cn1` (racemic) [Example 39, 5-(4-((2-(2,3-dihydrobenzo[b] [1,4]dioxin-6-yl)pyrrolidin-1-yl)methyl)phenyl)pyrimidine] gave an IC50 of 0.05 to 0.2 µM.

With `Cn1cc(-c2ccc(CN3CCCC3c3ccc4c(c3)OCCO4)nc2)cn1` (single isomer, unassigned) [Example 18, (S)-2-((2-(2,3-dihydrobenzo[b] [1,4]dioxin-6-yl)pyrrolidin-1-yl)methyl)-5-(1-methyl-1H-pyrazol-4-yl)pyridine or (R)-2-((2-(2,3-dihydrobenzo[b] [1,4]dioxin-6-yl)pyrrolidin-1-yl)methyl)-5-(1-methyl-1H-pyrazol-4-yl)pyridine] the IC50 was 1 to 10 µM.

In the case of `Cc1cc(CN2CCCC2c2ccc3c(c2)OCCO3)ccc1-c1ccncc1` (racemic) [Example 147], the IC50 is reported as 1 to 10 µM.

For `c1cc(N2CCOCC2)ccc1CN1CCCC1c1ccc2c(c1)OCC2` (racemic) [Example 24, 4-(4-((2-(2,3-dihydrobenzofuran-6-yl)pyrrolidin-1-yl)methyl)phenyl)morpholine], the IC50 was 0.2 to 1 µM.

`Cn1cc(-c2ccc(CN3CCCC3c3ccc4c(c3)OCO4)cc2)cn1` (racemic) [Example 72, 4-(4-((2-(benzo[d] [1,3]dioxol-5-yl)pyrrolidin-1-yl)methyl)phenyl)-1-methyl-1H-pyrazole] was tested, and the IC50 was 0.2 to 1 µM.

`Cc1cnccc1-c1ccc(CN2CCCC2c2ccc3c(c2)OCCO3)cc1C` (racemic) [Example 70, 4-(4-((2-(2,3-dihydrobenzo[b] [1,4]dioxin-6-yl)pyrrolidin-1-yl)methyl)-2-methylphenyl)-3-methylpyridine] gave an IC50 of 1 to 10 µM.

For `Cn1cc(-c2ccc(CN3CCCC3c3ccc4cccnc4c3)cc2)cn1` (racemic) [Example 150], the IC50 was 0.05 to 0.2 µM.

In the case of `Cn1cc(-c2ccc(CN3CCCC3c3ccc4c(c3)OCCO4)cn2)cn1` (single isomer, unassigned) [Example 7, (S)-5-((2-(2,3-dihydrobenzo[b] [1,4]dioxin-6-yl)pyrrolidin-1-yl)methyl)-2-(1-methyl-1H-pyrazol-4-yl)pyridine or (R)-5-((2-(2,3-dihydrobenzo[b] [1,4]dioxin-6-yl)pyrrolidin-1-yl)methyl)-2-(1-methyl-1H-pyrazol-4-yl)pyridine], the IC50 is reported as 0.05 to 0.2 µM.

`CS(=O)(=O)c1ccc(CN2CCCC2c2ccc3c(c2)OCCO3)cc1` (racemic) [Example 8, 2-(2,3-dihydrobenzo[b] [1,4]dioxin-6-yl)-1-(4-(methylsulfonyl)benzyl) pyrrolidine] showed an IC50 of 0.2 to 1 µM.

For `Cc1nn(C)c(C)c1-c1ccc(CN2CCCC2c2ccc3c(c2)OCCO3)cc1` (racemic) [Example 55, 4-(4-((2-(2,3-dihydrobenzo[b] [1,4]dioxin-6-yl)pyrrolidin-1-yl)methyl)phenyl)-1,3,5-trimethyl-1H-pyrazole], the IC50 was 1 to 10 µM.

In the case of `c1cnnc(-c2ccc(CN3CCCC3c3ccc4c(c3)OCCO4)cc2)c1` (racemic) [Example 144], the IC50 is reported as 0.05 to 0.2 µM.

`CS(=O)(=O)CCOc1ccc(CN2CCCC2c2ccc3c(c2)OCCO3)cc1` (racemic) [Example 65, 2-(2,3-dihydrobenzo[b] [1,4]dioxin-6-yl)-1-(4-(2-(methylsulfonyl)ethoxy)benzyl)pyrrolidine] gave an IC50 of 1 to 10 µM.

In the case of `Cc1cc(C(=O)Nc2ccc(CN3CCCC3c3ccc4c(c3)OCCO4)cc2)cc(C)n1` (racemic) [Example 156], the IC50 is reported as 0.2 to 1 µM.

In the case of `Cn1ncc2cc(CN3CCCC3c3ccc4c(c3)OCCO4)ccc21` (racemic) [Example 20, 5-((2-(2,3-dihydrobenzo[b] [1,4]dioxin-6-yl)pyrrolidin-1-yl)methyl)-1-methyl-1H-indazole], the IC50 is reported as 0.2 to 1 µM.

With `CN1CCN(c2ccc(CN3CCCC3c3ccc4c(c3)OCCO4)cc2)CC1` (racemic) [Example 146] the IC50 was 1 to 10 µM.

`Cc1cc(-c2cnn(C)c2)ccc1CN1CCCC1c1ccc2c(c1)OCCO2` (racemic) [Example 45, 4-(4-((2-(2,3-dihydrobenzo[b] [1,4]dioxin-6-yl)pyrrolidin-1-yl)methyl)-3-methylphenyl)-1-methyl-1H-pyrazole] showed an IC50 of 0.05 to 0.2 µM.

`c1cnc2ccc(CN3CCCC3c3ccc4c(c3)OCCO4)cc2c1` (racemic) [Example 19, 6-((2-(2,3-dihydrobenzo[b] [1,4]dioxin-6-yl)pyrrolidin-1-yl)methyl)quinoline] gave an IC50 of 0.2 to 1 µM.

With `Cc1csc(-c2ccc(CN3CCCC3c3ccc4c(c3)OCCO4)cc2)n1` (racemic) [Example 68, 2-(4-((2-(2,3-dihydrobenzo[b] [1,4]dioxin-6-yl)pyrrolidin-1-yl)methyl)phenyl)-4-methylthiazole] the IC50 was 0.2 to 1 µM.

`Clc1cc(-c2cccnc2)ccc1CN1CCCC1c1ccc2c(c1)OCCO2` (racemic) [Example 31, 3-(3-chloro-4-((2-(2,3-dihydrobenzo[b] [1,4]dioxin-6-yl)pyrrolidin-1-yl)methyl)phenyl)pyridine] showed an IC50 of 0.2 to 1 µM.

Work on `CS(=O)(=O)c1cncc(-c2ccc(CN3CCCC3c3ccc4c(c3)OCCO4)cc2)c1` (racemic) [Example 63, 3-(4-((2-(2,3-dihydrobenzo[b] [1,4]dioxin-6-yl)pyrrolidin-1-yl)methyl)phenyl)-5-(methylsulfonyl)pyridine] yielded an IC50 of 0.05 to 0.2 µM.

`Cc1cc(CN2CCCC2c2ccc3c(c2)OCCO3)ccc1-c1cccnc1C` (racemic) [Example 71, 3-(4-((2-(2,3-dihydrobenzo[b] [1,4]dioxin-6-yl)pyrrolidin-1-yl)methyl)-2-methylphenyl)-2-methylpyridine] was tested, and the IC50 was 0.2 to 1 µM.

`O=C1CSCCN1c1ccc(CN2CCCC2c2ccc3c(c2)OCCO3)cc1` (single isomer, unassigned) [Example 73] was tested, and the IC50 was 0.2 to 1 µM.

In the case of `c1cc(N2CCSCC2)ccc1CN1CCCC1c1ccc2c(c1)OCCO2` (racemic) [Example 28, 4-(4-((2-(2,3-dihydrobenzo[b] [1,4]dioxin-6-yl)pyrrolidin-1-yl)methyl) Phenyl) thiomorpholine], the IC50 is reported as 0.2 to 1 µM.

`CS(=O)(=O)c1ccc(-c2ccc(CN3CCCC3c3ccc4c(c3)OCCO4)nc2)cc1` (racemic) [Example 14, 2-((2-(2,3-dihydrobenzo[b] [1,4]dioxin-6-yl)pyrrolidin-1-yl)methyl)-5-(4-(methylsulfonyl)phenyl)pyridine] showed an IC50 of 0.2 to 1 µM.

`CS(=O)(=O)c1cnc(-c2ccc(CN3CCCC3c3ccc4c(c3)OCCO4)cc2)nc1` (racemic) [Example 149] was tested, and the IC50 was 0.05 to 0.2 µM.

In the case of `O=C1COCCN1c1ccc(CN2CCCC2c2ccc3c(c2)OCCO3)cc1` (racemic) [Example 61, 4-(4-((2-(2,3-dihydrobenzo[b] [1,4]dioxin-6-yl)pyrrolidin-1-yl)methyl)phenyl) morpholin-3-one], the IC50 is reported as 0.2 to 1 µM.

`Fc1cc(-c2cccnc2)ccc1CN1CCCC1c1ccc2c(c1)OCCO2` (racemic) [Example 32, 3-(4-((2-(2,3-dihydrobenzo[b] [1,4]dioxin-6-yl)pyrrolidin-1-yl)methyl)-3-fluorophenyl)pyridine] showed an IC50 of 0.05 to 0.2 µM.
